Measured values as given in US20240366543A1, “METHODS OF TREATING METHYLMALONIC ACIDEMIA AND PROPIONIC ACIDEMIA” (HemoShear Therapeutics, Inc., priority 2021, published 2024).
Values after ≈ are worked out from the molar mass of the structure shown. Values joined by “and” are separate entries in the source; they are usually repeats but may differ in a detail not shown here. Equal values may be shown once.

Assays:
[1] = tested on: Normal pHeps; experiment: HemoShear Technology, normal pHeps; type: cell-based, human; details: exposed 6 days
From the text: For this experiment, we deployed the HemoShear REVEAL-Tx™ technology, which is based on the cone-and-plate configuration or viscometer combined with a porous polycarbonate membrane that mimics a filtering layer of sinusoidal endothelial cells (see: Dash A, Deering TG, Marukian S, et al. Physiological Hemodynamics and Transport Restore Insulin and Glucagon Responses in a Normal Glucose Milieu in Hepatocytes In Vitro. 73rd Scientific Sessions of the American Diabetes Association, 2013 (Chicago), and U.S. Pat. Nos. 7,811,782 and 9,500,642, and 9,617,521, each of which is incorporated by reference herein in its entirety). […]
In PA and MMA pHeps, where P-CoA and M-CoA levels are very high, there is a dramatic reduction in P-CoA and M-CoA pools with Compound 5 treatment (Table 2 and Table 3). […] The effect of Compound 5 on levels of acetyl-CoA were measured in PA and MMA pHeps in acute static experiments and in PA, MMA and normal pHeps following chronic exposures in the HemoShear Technology (FIG. 5B; FIG. 6B). […]
To further evaluate the hypothesis that Compound 5 drives a redistribution of the acyl-CoA pools resulting in a reduction in P-CoA and M-CoA, the levels of CoASH were measured in the PA and MMA disease models. […]

[2] = tested on: primary hepatocyte model of isovaleric acidemia; experiment: Isovaleryl-CoA from 13C-leucine in primary hepatocyte model of isovaleric acidemia (Example 4); type: cell-based; details: primary hepatocytes with/without isovaleryl-CoA dehydrogenase inhibitor
Experimental: Primary hepatocytes are treated with increasing doses of Compound 5 (0, 0.1, 0.3, 1, 3, 10, 30, 100 μM) with and without an inhibitor for isovaleryl-CoA dehydrogenase for 30 min. After 30 min the cells are challenged with 13C-leucine. At the end of the challenge period, media is removed and the cells are lysed with 70% MeCN and 0.1% TFA containing 100 μM of ethymalonyl-CoA as an internal standard and harvested. Cell lysates are processed for HTMS/MS analysis.

[3] = tested on: primary hepatocytes (pHeps) from PA donors; experiment: HemoShear REVEAL-Tx Technology, PA pHeps; type: cell-based, human
From the text: For this experiment, we deployed the HemoShear REVEAL-Tx™ technology, which is based on the cone-and-plate configuration or viscometer combined with a porous polycarbonate membrane that mimics a filtering layer of sinusoidal endothelial cells (see: Dash A, Deering TG, Marukian S, et al. Physiological Hemodynamics and Transport Restore Insulin and Glucagon Responses in a Normal Glucose Milieu in Hepatocytes In Vitro. 73rd Scientific Sessions of the American Diabetes Association, 2013 (Chicago), and U.S. Pat. Nos. 7,811,782 and 9,500,642, and 9,617,521, each of which is incorporated by reference herein in its entirety).
Hepatocytes from propionic academia patients are plated in a collagen gel sandwich on one side of the membrane replicating the polarized orientation found in vivo within the hepatic sinusoids. On the other side, medium is continuously perfused and surface shear rates are applied across a range of physiological values derived from sinusoidal flow rates in vivo while also controlling transport in the system with in- and out-flow tubing to each compartment. Effectively, this creates a flow-based culture system where hepatocytes are shielded from direct effects of flow, as they would be in vivo, but perfusion, nutrient gradients, and interstitial fluid movement are maintained.
Biomarker levels are normalized to cell counts and cell volume to account for differences in the number of cells plated for each donor. […] This is most likely due to the presence of ^12C-succinyl-CoA in the sample, which has the same mass. In experiments described below, M-CoA is labeled with ^13C to determine a more accurate percent reduction. Compound 5 reduced the C3 concentration and the C3/C2 ratio with an EC50 similar to that for the reduction in P-CoA (FIGS. 3C, 3D).

[4] = tested on: MMA pHeps; experiment: Static cell culture, MMA pHeps, low/high propiogenic media; type: cell-based, human; details: for Percent change (30 μM), 12C-Acetyl-CoA / Percent change (30 μM), CoASH: static culture 1.5 h
Experimental: Unlike the HemoShear Technology, this assay is carried out without constant perfusion, utilizing cell culture media that was customized to mimic plasma levels of propiogenic sources (amino acids and ketoacids) in PA and MMA patients during periods of relative metabolic stability (low propiogenic media) and acute metabolic crisis (high propiogenic media). PA and MMA pHeps, in static cell culture, were treated with Compound 5 (concentrations ranging from 0.1 μM to 100 μM) for 30 minutes in low propiogenic media, followed by either a continuation of low propiogenic media or a switch to the high propiogenic media for 1 hour. The media used during the 1-hour incubation contained propiogenic SIL amino acids and ketoacids which are metabolized into labeled P-CoA and M-CoA in the cells. The SIL amino acids and ketoacids were a mix of ^13C and MeD8 labelling, but their catabolism produced a SIL P-CoA (denoted as ^13C—P-CoA for simplicity) with the same mass, independent of the type of SIL (also true for ^13C-M-CoA).

[5] = PA pHeps, HemoShear Technology, average ± SD
[6] = PA pHeps, HemoShear Technology, exposed 6 days
[7] = static cell culture, high propiogenic media
[8] = static cell culture, low propiogenic media

CCC(C)(C)C(=O)O [Compound 5, 2,2-dimethylbutyric acid]
Percent change at 30 μM, 12C-Acetyl-CoA [1]: 20 ± 2.9%
Percent change at 30 μM, CoASH [1]: −35.2 ± 3%
intracellular isovaleryl-CoA derived from 13C-leucine [2]: dose-dependent reduction
EC50 value for CoASH relative to EC50 value for reduction in disease biomarkers ([3]; HemoShear Technology, PA and MMA pHeps, 6 days): 10 fold
EC90 ([3]; Homo sapiens, Hepatocyte, exposure threshold used for comparison with clinical PK, read-out: estimated in vitro EC90): 2.32 µg/mL (≈ 20 µM)
average reduction in the C3/C2 ratio (log 2 fold change) ([3]; PA pHeps, HemoShear Technology, 30 μM): −2.1±1.2 log 2 fold change
% change at 30 μM, 2-Methylcitric acid (2MC) [3, 5]: −78.6±12.9%
% change at 30 μM, 12C-Acetyl-Carnitine (C2) [3, 5]: 54 ± 80.6%
% change at 30 μM, 12C-Propionyl-Carnitine (C3) [3, 5]: −68.9±14.6% and −69.4 ± 16.2%
% change at 30 μM, 12C-Propionyl-CoA (P-CoA) [3, 5]: −78.8±10.9%
Percent change at 30 μM, 12C-Acetyl-CoA [3, 6]: 54 ± 80.6%
Percent change at 30 μM, CoASH [3, 6]: −31.3 ± 24.2%
% change at 30 μM, 13C-Methymalonic acid [4, 7]: −91 ± 4%
% change at 30 μM, 13C-Propionyl-CoA (13C-P-CoA) [4, 7]: −75.9±7.3%
% change at 30 μM, 12C-Methylmalonyl-CoA (13C-M-CoA) [4, 8]: −76.5±13.2%
% change at 30 μM, 13C-Methymalonic acid [4, 8]: −83.2 ± 5^ %
% change at 30 μM, 13C-Propionyl-CoA (13C-P-CoA) [4, 8]: −77.6±9.8%
Percent change (30 μM), 12C-Acetyl-CoA ([4]; high propiogenic media): −14.6 ± 12.6%
Percent change (30 μM), CoASH ([4]; high propiogenic media): −28.7 ± 7.3%
Percent change (30 μM), 12C-Acetyl-CoA ([4]; low propiogenic media): −35.5 ± 18.1%
Percent change (30 μM), CoASH ([4]; low propiogenic media): −47.7 ± 13.4%
